Source: patent US9980945B2, “Benzoisoxazole-substituted compounds as MGLUR4 allosteric potentiators, compositions, and methods of treating neurological dysfunction” (Vanderbilt University, priority 2015, dated 2018)

What follows are molecules tested against mGluR4 (UniProt Q14833) (assay: mGluR4 potentiation assay (EC50 for potentiation at EC20 agonist; fluorometric plate reader, Ca2+ or thallium dye)). Conditions: potentiation of mGluR4; species of receptor not given.
Assay type: cell-based
Description: The disclosed compounds and compositions can be evaluated for their ability to act as a potentiator of metabotropic glutamate receptor activity, in particular mGluR4 activity, by any suitable known methodology known in the art. For example, Chinese Hamster Ovary (CHO) cells transacted with human mGluR4 or HEK cells co-transfected with rat mGluR4 and the G-protein regulated Inwardly Rectifying Potassium channel (GIRK) were plated in clear bottom assay plates for assay in a Hamamatsu FDSS Fluorometric Plate Reader. The cells were loaded with either a Ca2+-sensitive fluorescent dye or the thallium responsive dye and the plates were washed and placed into a suitable kinetic plate reader. For human mGluR4 assays, a fluorescence baseline was established for 3-5 seconds, the disclosed compounds were then added to the cells, and the response in cells was measured. Approximately two and a half minutes later, a concentration of mGluR4 orthosteric agonist (e.g. glutamate or L-AP4) eliciting approximately 20% (EC20) of the maximal agonist response was added to the cells, and the response was measured. Two minutes later, a concentration of mGluR4 agonist (e.g. glutamate or L-AP4) eliciting 80% (EC80) of the maximal agonist response was added to the cells, and the response was measured. For rat mGluR4/GIRK experiments, a baseline was established for approximately five seconds, disclosed compounds were added, and either an EC20 or EC80 concentration of agonist was added approximately two and one half minutes later. Potentiation of the agonist response of mGluR4 by the disclosed compounds was observed as an increase in response to the EC20 concentration of agonist in the presence of compound compared to the response to agonist in the absence of compound. Similarly, antagonism of the agonist response of mGluR4 by the disclosed compounds was observed as a decrease in response to the EC80 concentration of agonist in the presence of compound compared to the response to agonist in the absence of compound.
The above described assay operated in two modes. In the first mode, a range of concentrations of the disclosed compounds are added to cells, followed by a single fixed concentration of agonist. If the compound acts as a potentiator, an EC50 so value for potentiation and a maximum extent of potentiation by the compound at this concentration of agonist is determined by non-linear curve fitting. If the compound acts as a noncompetitive antagonist, an IC50 value is determined by non-linear curve fitting. In the second mode, several fixed concentrations of the disclosed compounds are added to various wells on a plate, followed by a range in concentrations of agonist for each concentration of disclosed compound. The EC50 values for the agonist at each concentration of compound are determined by non-linear curve fitting. A decrease in the EC50 value of the agonist with increasing concentrations of the sample compound (a leftward shift of the agonist concentration-response curve) is an indication of the degree of mGluR4 potentiation at a given concentration of the sample compound. A decrease in the maximal response of the agonist with increasing concentrations of the sample compounds, with or without a rightward shift in agonist potency, is an indication of the degree of noncompetitive antagonism at mGluR4. The second mode also indicates whether the sample compounds also affect the maximum response to mGluR4 to agonists.

Compound | EC50
CC(C)(C)Cc1noc2cc(Nc3n[nH]c4ccccc34)ccc12 [Example 17, N-(1H-indazol-3-yl)-3-neopentylbenzo[d]isoxazol-6-amine] | > 10000 nM
CC(C)(C)Cc1noc2c(F)c(Nc3n[nH]c4cccnc34)ccc12 [Example 163, 3-(2,2-dimethylpropyl)-7-fluoro-N-(1H-pyrazolo[4,3-b]pyridin-3-yl)-1,2-benzoxazol-6-amine] | > 30000 nM
ClC1(c2noc3cc(Nc4n[nH]c5nccnc45)ccc23)CCC1 [Example 8, 3-(1-chlorocyclobutyl)-N-(1H-pyrazolo[3,4-b]pyrazin-3-yl)benzo[d]isoxazol-6-amine] | 185 nM
CC(C)(C)Cc1noc2cc(Nc3n[nH]c4cccnc34)c(F)cc12 [Example 167, 3-(2,2-dimethylpropyl)-5-fluoro-N-(1H-pyrazolo[4,3-b]pyridin-3-yl)-1,2-benzoxazol-6-amine] | > 30000 nM
CC(c1ccc2c(cnn2C)c1)c1noc2cc(Nc3n[nH]c4cccnc34)ccc12 (centres unmarked) [Example 31, 3-(1-(1-methyl-1H-indazol-5-yl)ethyl)-N-(1H-pyrazolo[4,3-b]pyridin-3-yl)benzo[d]isoxazol-6-amine] | 645 nM
Cc1noc2ccc(Nc3n[nH]c4ncccc34)cc12 [Example 24, 3-methyl-N-(1H-pyrazolo[3,4-b]pyridin-3-yl)benzo[d]isoxazol-5-amine] | 297 nM
Cc1noc2c(F)cc(Nc3n[nH]c4nccnc34)cc12 [Example 106, 7-fluoro-3-methyl-N-(1H-pyrazolo[3,4-b]pyrazin-3-yl)-1,2-benzoxazol-5-amine] | 23.1 nM
CC(C)(C)Cc1noc2c(F)c(Nc3n[nH]c4nccnc34)ccc12 [Example 164, 3-(2,2-dimethylpropyl)-7-fluoro-N-(1H-pyrazolo[3,4-b]pyrazin-3-yl)-1,2-benzoxazol-6-amine] | > 30000 nM
c1cc2oncc2cc1Nc1n[nH]c2c1CCCC2 [Example 21, N-(4,5,6,7-tetrahydro-1H-indazol-3-yl)benzo[d]isoxazol-5-amine] | > 10000 nM
CCCC(C)c1noc2cc(Nc3n[nH]c4nccnc34)ccc12 (centres unmarked) [Example 98, 3-(1-methylbutyl)-N-(1H-pyrazolo[3,4-b]pyrazin-3-yl)-1,2-benzoxazol-6-amine] | 172 nM
CC(C)(C)Cc1noc2cc(Nc3n[nH]c4cc(F)cnc34)cc(F)c12 [Example 151, 3-(2,2-dimethylpropyl)-4-fluoro-N-(6-fluoro-1H-pyrazolo[4,3-b]pyridin-3-yl)-1,2-benzoxazol-6-amine] | > 10000 nM
CCC(CC)c1noc2cc(Nc3n[nH]c4nccnc34)ccc12 [Example 83, 3-(1-ethylpropyl)-N-(1H-pyrazolo[3,4-b]pyrazin-3-yl)-1,2-benzoxazol-6-amine] | 97.1 nM
c1cnc2c(Nc3ccc4c(Cc5ccc6[nH]ncc6c5)noc4c3)n[nH]c2c1 [Example 33, 3-((1H-indazol-5-yl)methyl)-N-(1H-pyrazolo[4,3-b]pyridin-3-yl)benzo[d]isoxazol-6-amine] | 44 nM
Cc1ccc(OCc2noc3cc(Nc4n[nH]c5cccnc45)ccc23)cn1 [Example 175, 3-[(6-methyl-3-pyridyl)oxymethyl]-N-(1H-pyrazolo[4,3-b]pyridin-3-yl)-1,2-benzoxazol-6-amine] | 588 nM
Cn1ncc2cc(Cc3noc4cc(Nc5n[nH]c6cccnc56)ccc34)ccc21 [Example 112, 3-[(1-methylindazol-5-yl)methyl]-N-(1H-pyrazolo[4,3-b]pyridin-3-yl)-1,2-benzoxazol-6-amine] | 74.8 nM
CCC(CC)c1noc2cc(Nc3n[nH]c4ncccc34)ccc12 [Example 84, 3-(1-ethylpropyl)-N-(1H-pyrazolo[3,4-b]pyridin-3-yl)-1,2-benzoxazol-6-amine] | 522 nM
Cc1noc2ccc(Nc3n[nH]c4ncc(F)cc34)cc12 [Example 104, N-(5-fluoro-1H-pyrazo!o[3,4-b]pyridin-3-yl)-3-methyl-1,2-benzoxazol-5-amine] | 216 nM

More lines, now with the values ahead:

EC50 | Compound
683 nM | c1cnc2c(Nc3ccc4c(C5CCC5)noc4c3)n[nH]c2n1 [Example 4, 3-cyclobutyl-N-(1H-pyrazolo[3,4-b]pyrazin-3-yl)benzo[d]isoxazol-6-amine]
672 nM | O=C(NC1CCC1)c1noc2cc(Nc3n[nH]c4cccnc34)ccc12 [Example 53, N-cyclobutyl-6-(1H-pyrazolo[4,3-b]pyridin-3-ylamino)-1,2-benzoxazole-3-carboxamide]
416 nM | FC(F)(F)CCc1noc2cc(Nc3n[nH]c4cccnc34)ccc12 [Example 109, N-(1H-pyrazolo[4,3-b]pyridin-3-yl)-3-(3,3,3-trifluoropropyl)-1,2-benzoxazol-6-amine]
5770 nM | c1cnc2c(Nc3ccc4c(CN5CCOCC5)noc4c3)n[nH]c2c1 [Example 133, 3-(morpholinomethyl)-N-(1H-pyrazolo[4,3-b]pyridin-3-yl)-1,2-benzoxazol-6-amine; 2,2,2-trifluoroacetic acid]
523 nM | c1cnc2c(Nc3ccc4c(C5CCCC5)noc4c3)n[nH]c2c1 [Example 2, 3-cyclopentyl-N-(1H-pyrazolo[4,3-b]pyridin-3-yl)benzo[d]isoxazol-6-amine]
1360 nM | O=C(Cc1noc2cc(Nc3n[nH]c4cccnc34)ccc12)N1CCOCC1 [Example 143, 1-morpholino-2-[6-(1H-pyrazolo[4,3-b]pyridin-3-ylamino)-1,2-benzoxazol-3-yl]ethanone]
96 nM | COc1ccc(Cc2noc3cc(Nc4n[nH]c5cccnc45)ccc23)cn1 [Example 32, 3-((6-methoxypyridin-3-yl)methyl)-N-(1H-pyrazolo[4,3-b]pyridin-3-yl)benzo[d]isoxazol-6-amine]
249 nM | O=C(NC1CC(F)(F)C1)c1noc2cc(Nc3n[nH]c4cccnc34)ccc12 [Example 29, 6-((1H-pyrazolo[4,3-b]pyridin-3-yl)amino)-N-(3,3-difluorocyclobutyl)benzo[d]isoxazole-3-carboxamide]
1710 nM | CC(c1noc2cc(Nc3n[nH]c4cccnc34)ccc12)C(F)F (centres unmarked) [Example 178, 3-(2,2-difluoro-1-methyl-ethyl)-N-(1H-pyrazolo[4,3-b]pyridin-3-yl)-1,2-benzoxazol-6-amine]
2580 nM | O=C(Cc1noc2cc(Nc3n[nH]c4cccnc34)ccc12)N1CC(F)(F)C1 [Example 144, 1-(3,3-difluoroazetidin-1-yl)-2-[6-(1H-pyrazolo[4,3-b]pyridin-3-ylamino)-1,2-benzoxazol-3-yl]ethanone]
> 10000 nM | O=C(c1noc2cc(Nc3n[nH]c4cccnc34)ccc12)N1CCC(F)(F)C1 [Example 30, (6-((1H-pyrazolo[4,3-b]pyridin-3-yl)amino)benzo[d]isoxazol-3-yl)(3,3-difluoropyrrolidin-1-yl)methanone]
2660 nM | CCCCC(C)(F)c1noc2cc(Nc3n[nH]c4cccnc34)ccc12 (centres unmarked) [Example 134, 3-(1-fluoro-1-methyl-pentyl)-N-(1H-pyrazolo[4,3-b]pyridin-3-yl)-1,2-benzoxazol-6-amine]
1860 nM | Cc1noc2cc(Nc3n[nH]c4cccnc34)ccc12 [Example 1, 3-methyl-N-(1H-pyrazolo[4,3-b]pyridin-3-yl)benzo[d]isoxazol-6-amine]
> 10000 nM | O=C(Cc1noc2cc(Nc3n[nH]c4cccnc34)ccc12)N1CCCC1c1ccccn1 (centres unmarked) [Example 162]
1300 nM | CCc1noc2cc(Nc3n[nH]c4cccnc34)ccc12 [Example 16, 3-ethyl-N-(1H-pyrazolo[4,3-b]pyridin-3-yl)benzo[d]isoxazol-6-amine]
976 nM | CC(C)c1noc2cc(Nc3n[nH]c4cccnc34)ccc12 [Example 155, 3-isopropyl-N-(1H-pyrazolo[4,3-b]pyridin-3-yl)-1,2-benzoxazol-6-amine]
1280 nM | c1cnc2c(Nc3ccc4c(OCC5CCCCO5)noc4c3)n[nH]c2c1 (centres unmarked) [Example 27, N-(1H-pyrazolo[4,3-b]pyridin-3-yl)-3-((tetrahydro-2H-pyran-2-yl)methoxy)benzo[d]isoxazole-6-amine]
387 nM | COc1ncc(Cc2noc3cc(Nc4n[nH]c5cccnc45)ccc23)cn1 [Example 166, 3-[(2-methoxypyrimidin-5-yl)methyl]-N-(1H-pyrazolo[4,3-b]pyridin-3-yl)-1,2-benzoxazol-6-amine]
